Measured values: patent US20070128217A1 (priority 2003, published 2007)

How the values were obtained:
[1] = system: control sera (pooled serum of ten healthy LUMC hospital workers; commercial negative donor pooled serum from the Dutch bloodbank); type: binding, human; design: Binding of Control serum LUMC to linear peptides / Binding of Control serum Blood-bank to linear peptides / Binding of Control serum LUMC to looped peptides / Binding of Control Serum Blood-Bank to Looped peptides / Binding of Control serum LUMC to linear peptides of the protein M of SARS-CoV Urbani / Binding of Control serum Blood-bank to linear peptides of the protein M of SARS-CoV Urbani / Binding of Control serum LUMC to looped peptides of the protein M of SARS-CoV Urbani / Binding of Control Serum Blood-Bank to Looped peptides of the protein M of SARS-CoV Urbani: unit not given here
[2] = system: antibodies in sera from SARS patients (sera 1a, 1b, 2, 6, 37, 62, London, SARS-yellow, SARS-green); type: binding, human; design: Binding of serum 6 to linear peptides of protein X1 of SARS-CoV Urbani / Binding of serum 37 to linear peptides of protein X1 of SARS-CoV Urbani / Binding of serum 6 to looped/cyclic peptide (PEPSCAN-ELISA) / Binding of serum 37 to looped/cyclic peptide (PEPSCAN-ELISA) / Binding of serum 37 to looped/cyclic peptides of protein X1 of SARS-CoV Urbani / Binding of serum 6 to linear peptides of protein X2 / Binding of serum 37 to linear peptides of protein X2 / Binding of serum 37 to looped/cyclic peptides of protein X2 of SARS-CoV Urbani / Binding of serum 6 to linear peptides of protein M of SARS-CoV Urbani / Binding of serum 37 to linear peptides of protein M of SARS-CoV Urbani / Binding of serum 6 to looped/cyclic peptides of protein M of SARS-CoV Urbani / Binding of serum 37 to looped/cyclic peptides of protein M of SARS-CoV Urbani / Binding of serum 6 to linear peptides of protein X3 of SARS-CoV Urbani / Binding of serum 37 to linear peptides of protein X3 of SARS-CoV Urbani / Binding of serum 37 to looped/cyclic peptides of protein X3 of SARS-CoV Urbani / Binding of serum 6 to linear peptides of protein X4 of SARS-CoV Urbani / Binding of serum 37 to linear peptides of protein X4 of SARS-CoV Urbani / Binding of serum 37 to looped/cyclic peptides of protein X4 of SARS-CoV Urbani / Binding of serum 6 to linear peptides of protein X5 of SARS-CoV Urbani / Binding of serum 37 to linear peptides of protein X5 of SARS-CoV Urbani / Binding of serum 37 to looped/cyclic peptides of protein X5 of SARS-CoV Urbani / Binding of serum 6 to linear peptides of protein N of SARS-CoV Urbani / Binding of serum 37 to linear peptides of protein N of SARS-CoV Urbani / Binding of serum 6 to linear peptide (PEPSCAN-ELISA) / Binding of serum 1a to looped/cyclic peptides of protein N of SARS-CoV Urbani / Binding of serum 1b to looped/cyclic peptides of protein N of SARS-CoV Urbani / Binding of serum 2 to looped/cyclic peptides of protein N of SARS-CoV Urbani / Binding of serum 6 to looped/cyclic peptides of protein N of SARS-CoV Urbani / Binding of serum 37 to looped/cyclic peptides of protein N of SARS-CoV Urbani / Binding of serum 62 to looped/cyclic peptides of protein N of SARS-CoV Urbani / Binding of serum London to looped/cyclic peptides of protein N of SARS-CoV Urbani / Binding of serum SARS-green to looped/cyclic peptides of protein N of SARS-CoV Urbani: unit not given here
[3] = system: rabbit serum obtained by immunizing a rabbit with the SARS-CoV strain Frankfurt 1; type: binding; design: Binding of a rabbit serum to linear peptides / Binding of a rabbit serum to looped peptides / Rabbit serum linear peptides / Rabbit serum looped peptides / Binding of a rabbit serum to linear peptides of protein N of SARS-CoV Urbani (Rabbit serum linear peptides) / Binding of a rabbit serum to looped/cyclic peptides of protein N of SARS-CoV Urbani (Rabbit serum looped peptides): unit not given here
[4] = system: recombinant human anti-SARS-CoV antibody 03-018; type: binding; design: Binding of antibody 03-018 to linear peptides of the N protein of SARS-CoV Urbani / Binding of antibody 03-018 to looped/cyclic peptides of the N protein of SARS-CoV Urbani: unit not given here

Sequence | Binding of Control Serum Blood-Bank to Looped peptides [1] | Binding of Control serum Blood-bank to linear peptides [1] | Binding of Control serum LUMC to linear peptides [1] | Binding of Control serum LUMC to looped peptides [1] | Binding of serum 1a to linear peptide (PEPSCAN-ELISA) [2] | Binding of serum 1a to looped/cyclic peptides of protein N of SARS-CoV Urbani [2] | Binding of serum 1b to linear peptide (PEPSCAN-ELISA) [2] | Binding of serum 1b to looped/cyclic peptides of protein N of SARS-CoV Urbani [2] | Binding of serum 2 to linear peptide (PEPSCAN-ELISA) [2] | Binding of serum 2 to looped/cyclic peptides of protein N of SARS-CoV Urbani [2] | Binding of serum 6 to linear peptide (PEPSCAN-ELISA) [2] | Binding of serum 6 to looped/cyclic peptides of protein N of SARS-CoV Urbani [2] | Binding of serum 37 to linear peptide (PEPSCAN-ELISA) [2] | Binding of serum 37 to looped/cyclic peptides of protein N of SARS-CoV Urbani [2] | Binding of serum 62 to linear peptide (PEPSCAN-ELISA) [2] | Binding of serum 62 to looped/cyclic peptides of protein N of SARS-CoV Urbani [2] | Binding of serum London to linear peptide (PEPSCAN-ELISA) [2] | Binding of serum London to looped/cyclic peptides of protein N of SARS-CoV Urbani [2] | Binding of serum SARS-green to linear peptide (PEPSCAN-ELISA) [2] | Binding of serum SARS-green to looped/cyclic peptides of protein N of SARS-CoV Urbani [2] | further results
SRSSSRSRGNSRNST | 0.6 | 0.7 | 0.7 | 0.6 | 0.2 | 0.3 | 0.1 | 0.2 | 0.2 | 0.3 | 0.2 | 0.3 | 0.4 | 0.5 | 0.6 | 0.4 | 0.4 | 0.4 | 0.2 | 0.2 | Binding of serum SARS-yellow to linear peptide (PEPSCAN-ELISA) [2]: 0.7; Binding of serum SARS-yellow to looped/cyclic peptides of protein N of SARS-CoV Urbani [2]: 0.4; Binding of a rabbit serum to linear peptides of protein N of SARS-CoV Urbani (Rabbit serum linear peptides) [3]: 0.1; Binding of a rabbit serum to looped/cyclic peptides of protein N of SARS-CoV Urbani (Rabbit serum looped peptides) [3]: 0.3; Binding of antibody 03-018 to linear peptides of the N protein of SARS-CoV Urbani [4]: 0.1; Binding of antibody 03-018 to looped/cyclic peptides of the N protein of SARS-CoV Urbani [4]: 0.2
SSRGNSPARMASGGG | 0.8 | 0.8 | 0.9 | 0.9 | 0.4 | 0.4 | 0.3 | 0.2 | 0.2 | 0.5 | 0.2 | 0.4 | 0.5 | 0.4 | 0.6 | 0.5 | 0.5 | 0.8 | 1.0 | 0.6 | Binding of serum SARS-yellow to linear peptide (PEPSCAN-ELISA) [2]: 0.7; Binding of serum SARS-yellow to looped/cyclic peptides of protein N of SARS-CoV Urbani [2]: 0.5; Binding of a rabbit serum to linear peptides of protein N of SARS-CoV Urbani (Rabbit serum linear peptides) [3]: 0.2; Binding of a rabbit serum to looped/cyclic peptides of protein N of SARS-CoV Urbani (Rabbit serum looped peptides) [3]: 0.0; Binding of antibody 03-018 to linear peptides of the N protein of SARS-CoV Urbani [4]: 0.1; Binding of antibody 03-018 to looped/cyclic peptides of the N protein of SARS-CoV Urbani [4]: 0.2
SSRSRGNSRNSTPGS | 0.5 | 0.6 | 0.5 | 0.5 | 0.8 | 0.3 | 0.5 | 0.1 | 0.1 | 0.3 | 0.2 | 0.1 | 0.6 | 0.4 | 0.5 | 0.3 | 0.4 | 0.3 | 0.1 | 0.0 | Binding of serum SARS-yellow to linear peptide (PEPSCAN-ELISA) [2]: 0.5; Binding of serum SARS-yellow to looped/cyclic peptides of protein N of SARS-CoV Urbani [2]: 0.1; Binding of a rabbit serum to linear peptides of protein N of SARS-CoV Urbani (Rabbit serum linear peptides) [3]: 0.1; Binding of a rabbit serum to looped/cyclic peptides of protein N of SARS-CoV Urbani (Rabbit serum looped peptides) [3]: 0.0; Binding of antibody 03-018 to linear peptides of the N protein of SARS-CoV Urbani [4]: 0.1; Binding of antibody 03-018 to looped/cyclic peptides of the N protein of SARS-CoV Urbani [4]: 0.2
SSRSSSRSRGNSRNS | 0.7 | 0.7 | 0.7 | 0.7 | 0.2 | 0.3 | 0.1 | 0.3 | 0.2 | 0.4 | 0.2 | 0.3 | 0.5 | 0.5 | 0.6 | 0.6 | 0.5 | 0.5 | 0.3 | 0.3 | Binding of serum SARS-yellow to linear peptide (PEPSCAN-ELISA) [2]: 0.7; Binding of serum SARS-yellow to looped/cyclic peptides of protein N of SARS-CoV Urbani [2]: 0.4; Binding of a rabbit serum to linear peptides of protein N of SARS-CoV Urbani (Rabbit serum linear peptides) [3]: 0.2; Binding of a rabbit serum to looped/cyclic peptides of protein N of SARS-CoV Urbani (Rabbit serum looped peptides) [3]: 0.7; Binding of antibody 03-018 to linear peptides of the N protein of SARS-CoV Urbani [4]: 0.1; Binding of antibody 03-018 to looped/cyclic peptides of the N protein of SARS-CoV Urbani [4]: 0.2
SSSRSRGNSRNSTPG | 0.5 | 0.7 | 0.6 | 0.5 | 0.4 | 0.2 | 0.2 | 0.1 | 0.2 | 0.3 | 0.1 | 0.2 | 0.5 | 0.4 | 0.5 | 0.3 | 0.5 | 0.3 | 0.2 | 0.1 | Binding of serum SARS-yellow to linear peptide (PEPSCAN-ELISA) [2]: 0.6; Binding of serum SARS-yellow to looped/cyclic peptides of protein N of SARS-CoV Urbani [2]: 0.1; Binding of a rabbit serum to linear peptides of protein N of SARS-CoV Urbani (Rabbit serum linear peptides) [3]: 0.1; Binding of a rabbit serum to looped/cyclic peptides of protein N of SARS-CoV Urbani (Rabbit serum looped peptides) [3]: 0.4; Binding of antibody 03-018 to linear peptides of the N protein of SARS-CoV Urbani [4]: 0.1; Binding of antibody 03-018 to looped/cyclic peptides of the N protein of SARS-CoV Urbani [4]: 0.2
